Measurements published in patent US20250325491A1, “POLYVALENT MOLECULE BASED LIPID NANOPARTICLES FOR NUCLEIC ACID DELIVERY” (Bio-TRIP B.V., priority 2022, published 2025).

How the values were obtained:
[1] = siRNA retention by Quant-iT RiboGreen assay; assay type: physicochemical; conditions: A2 siRNA-aNPs with variations in N/P, tri-caprylin content, cholesterol content and type of phospholipid (FIG. 13); in most cases
Description: The Quant-iT RiboGreen assay (Thermo Fisher) was used to quantify the amount of siRNA loaded inside the formulated particles. The assay was performed using a black 96-well plate. The formulation sample with a theoretical siRNA concentration of 133.3 μg/mL, was diluted 200 times in TE buffer (10 mM Tris-HCl, 1 mM, EDTA, pH 7.5 in DEPC-treated water) and with a TE buffer containing 2% Triton™ X-100, in a black 96-well plate to a total volume of 100 μl. The Triton detergent will disrupt the lipid-based nanoparticles; therefore, all siRNA (retained plus unretained) becomes accessible for the Quant-iT RiboGreen reagent. Controls of siRNA of known concentration (28.6 μg/mL) were diluted 53.3 times in both TE buffer and TE buffer containing 2% Triton in a 96-well plate to a total volume of 100 μl. Next, RiboGreen reagent was diluted 200 times with TE buffer and with TE buffer containing Triton. 100 μl of this dilution was added to each well containing sample or control to bring the total volume in the plate to 200 μl. Subsequently, the samples' fluorescence was measured on a Tecan Spark® microplate reader at an excitation wavelength of 480 nm and emission wavelength of 520 nm.
The recovery of siRNA was determined as:
The siRNA retention=recovery×entrapment.

[2] = system: Firefly luciferase in RAW264.7 cell line transfected with the pmirGLO plasmid; experiment: In vitro silencing (dose-response curve); conditions: RAW 264.7 cell line; siRNA-aNPs containing the polyvalent molecule vs DLin-MC3-DMA or ALC-0315 particles (FIG. 11)
Description: The in vitro silencing experiments were performed in a RAW264.7 cell line transfected with the pmirGLO plasmid (containing Renilla luciferase and Firefly luciferase expressing gene sequences). The cells were cultured until 80% confluency in a T75 cell culture flask. The cells were detached, counted, and seeded at 10000 cells/well in a 96-well plate. After overnight resting, the cells were transfected with nanoparticles containing anti Firefly luciferase siRNA at a range of concentrations. After 48-hour incubation, the old medium was washed off with 1×PBS. Lysate phosphate buffer (Dual-Luciferase® Reporter Assay System, Promega) was added to lyse the cells. […] Subsequently, 40 μl of ONE-Glo™ reagent (Dual-Luciferase® Reporter Assay System, Promega) was added and luminescence was measured with a Tecan Spark® microplate reader at an integration time of 500 ms, and settle time of 1000 ms. Since the luminescence peak should be in the range of 550-570 nm, a luminescence scan was performed to confirm the wavelength. Next, 40 μl of Stop and Glo reagent (Dual-Luciferase® Reporter Assay System, Promega) was added to each well and the luminescence was measured again in the same way. The relative remaining Firefly luciferase luminescence was calculated. First, the Firefly luminescence was normalized with the Renilla luminescence. […]

[3] = Dynamic light scattering (DLS) of nanoparticles; assay type: physicochemical
Description: The hydrodynamic diameter of the formulated particles was determined by a number-weighted mean diameter provided by dynamic light scattering (DLS) using a Zetasizer Nano ZS in combination with a Malvern Zetasizer NanoSampler (Malvern Instruments, Worcestshire, UK). The size dispersity was measured as the poly dispersity index (PDI). For the DLS measurements, 100 μl of the formulated nanoparticle was diluted into 700 μl of PBS (137 mM NaCl, 2.7 mM KCl, 10 mM Na2HPO4 and 1.8 mM KH2PO4) and equilibrated at room temperature before the analysis. Each sample was measured 5 times, 10 runs of each 10 seconds, at wavelength 633 nm, without fixing the attenuator and measurement position.

RAW 264.7 cell line = experiment: MTS cytotoxicity assay; assay type: cell-based; conditions: RAW 264.7 cell line exposed to siRNA-aNPs with increasing amounts of the polyvalent molecule (FIG. 10)
Description: MTS assays were carried out on multiple apolipoprotein nanoparticles (aNPs) of the invention. These assays were executed in line with protocols that are known in the art.

[4] = Cryo-TEM of nanoparticles; assay type: physicochemical; conditions: siRNA-aNPs containing the polyvalent material
Description: Size and shape of the nanoparticles was also assessed by cryo-transmission electron microscopy (cryo-TEM). The surface of 200-mesh lacey carbon supported copper grids (Electron Microscopy Sciences) was plasma charged for 40 seconds using a carbon coater (Cressington 208). Subsequently, 3 μl of nanoparticle sample (˜1 mg protein/ml) was pipetted on a grid and vitrified into a thin film by plunge vitrification in liquid ethane. This step was performed by using an automated robot (FEI Vitrobot Mark IV). Cryo-TEM imaging was acquired on the cryo-transmission electron microscope TITAN (Thermo Fisher), equipped with a field emission gun (FEG), a post-column Gatan imaging filter (model 2002) and a post-GIF 2 k×2 k Gatan CCD camera (model 794). The imaging was performed at 300 kV acceleration voltage in bright-field TEM mode with zero-loss energy filtering at 24,000× magnification (dose rate of 11.8 e−/Å2·s), and 1s acquisition time. Pictures and results are reported in Table S6, FIG. 7, FIG. 8, FIG. 9 (A), FIG. 15.

[5] = system: RAW264.7 macrophage cells; experiment: In vitro Firefly luciferase expression (mRNA transfection); assay type: cell-based; conditions: 100 ng mRNA per well, 24 hours after transfection (FIG. 14)
Description: For the detection of Firefly luciferase expression in vitro, the ONE-Glo™ Luciferase Assay System (Promega) was used. RAW264.7 cells were seeded at a density of 35 k cells per well in a 96-well plate in 100 μL. After approximately 6 hours the RAW264.7 cells were transfected with 10 μL Firefly luciferase mRNA (RIBOPRO) using aNPs or LNPs at a dose of 100 ng mRNA per well. 24 hours after transfection, cell viability was determined by a CellTiter 96® AQueous One Solution Cell Proliferation assay (MTS) (Promega) assay. 10 μL reagent was added to the cells, and absorbance was measured at 495 nm after an hour of incubation (37° C., 5% CO2). Subsequently, the cells were washed three times with 1×PBS, and then 40 μL ONE-Glo™ Luciferase Assay Reagent was added to each well. After complete lysis of the cells, the cell lysates were transferred to a white flat bottom 96-well plate. Luminescence was measured using a Tecan Spark plate reader. Luciferase expression was expressed as luciferase intensity after normalization to the cell viability and subtracting background signal.

[6] = mRNA-aNPs containing the polyvalent material, in vitro experiment formulation
[7] = mRNA-aNPs containing the polyvalent material, in vivo experiment formulation
[8] = siRNA-aNPs containing A2, N/P = 6, High Cholesterol (3.37 mg)
[9] = siRNA-aNPs containing A2, N/P = 6, Low Cholesterol (0.54 mg)
[10] = siRNA-aNPs containing A2, N/P = 6, Low Triglyceride (5 mg)
[11] = siRNA-aNPs containing A2, N/P = 6, No Triglyceride
[12] = siRNA-aNPs containing A2, N/P = 6, phospholipid DMPC
[13] = siRNA-aNPs containing A2, N/P = 6, phospholipid DPPC
[14] = siRNA-aNPs containing A2, N/P = 6, phospholipid DSPC
[15] = siRNA-aNPs containing A2, N/P = 6, phospholipid POPC
[16] = siRNA-aNPs containing A2, composition as Table S3 except N/P = 3
[17] = siRNA-aNPs containing A2, composition as Table S3 except N/P = 9
[18] = siRNA-aNPs containing the polyvalent material (Table S3), SD over individual repeats

CCCCCCCCOC(=O)CCN(CCCN(CCCCN(CCCN(CCC(=O)OCCCCCCCC)CCC(=O)OCCCCCCCC)CCCN(CCC(=O)OCCCCCCCC)CCC(=O)OCCCCCCCC)CCCN(CCC(=O)OCCCCCCCC)CCC(=O)OCCCCCCCC)CCC(=O)OCCCCCCCC [Example A2, G1-ACR-nC8-8]
siRNA retention (Ribogreen assay) [1]: high siRNA retention
silencing potency compared with reference aNPs or LNPs (dose response curve) [2]: higher potency than the reference aNPs or LNPs
DLS Hydrodynamic diameter (number mean) [3, 6]: 53 nm
DLS PDI [3, 6]: 0.27
DLS Hydrodynamic diameter (number mean) [3, 7]: 63 nm
DLS PDI [3, 7]: 0.08
DLS Hydrodynamic diameter [3, 8]: 103 nm
DLS PDI [3, 8]: 0.24
DLS Hydrodynamic diameter [3, 9]: 95 nm
DLS PDI [3, 9]: 0.07
DLS Hydrodynamic diameter [3, 10]: 60 nm
DLS PDI [3, 10]: 0.08
DLS Hydrodynamic diameter [3, 11]: 122 nm
DLS PDI [3, 11]: 0.16
DLS Hydrodynamic diameter [3, 12]: 91 nm
DLS PDI [3, 12]: 0.18
DLS Hydrodynamic diameter [3, 13]: 61 nm
DLS PDI [3, 13]: 0.08
DLS Hydrodynamic diameter [3, 14]: 60 nm
DLS PDI [3, 14]: 0.07
DLS Hydrodynamic diameter [3, 15]: 123 nm
DLS PDI [3, 15]: 0.08
DLS Hydrodynamic diameter [3, 16]: 173 nm
DLS PDI [3, 16]: 0.79
DLS Hydrodynamic diameter [3, 17]: 62 nm
DLS PDI [3, 17]: 0.24
nanoparticle diameter, all composition variations of Table S7 ([3]; siRNA-aNPs containing A2, in all cases): with diameters smaller than 200 nm are formed.
DLS Hydrodynamic diameter (number mean) [3, 18]: 57 ± 6 nm
DLS PDI [3, 18]: 0.16 ± 0.03
cytotoxicity (MTS assay) (RAW 264.7 cell line): do not exercise cytotoxicity
Cryo-TEM Diameter ([4]; SD over n individual particles): 55 ± 11 nm
Cryo-TEM PDI ([4]; n individual particles): 0.04
Luminescence intensity after Firefly luciferase mRNA transfection, compared with ALC-0315 LNP and aNP controls [5]: outperform the reference LNP and aNP particles
